Measurements as given in patent publication US10952433B2, “Solutions for enhancing the effectiveness of insecticides and fungicides on living plants and related methods” (priority 2015, dated 2021).
Where two headings read alike, the source gives them in different places.

Assays:
[1] = test system: lepidopteran larvae: cabbage loopers (Trichoplusia ni) and beet armyworms (Spodoptera exigua); format: in vivo; conditions: leaf discs
Summary of the method: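 Romaine lettuce leaf discs (⅝ inch) dipped about one second in treatment solution and infested with four cabbage loopers and four beet armyworms (3rd-4th instar) per container. Held dark at 15 °C, 80% RH; percent disc-area damage scored visually in 5% increments at 24, 48 and 72 h.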

[2] = test system: lepidopteran larvae: cabbage loopers (Trichoplusia ni) and beet armyworms (Spodoptera exigua); format: in vivo; conditions: plants
Summary of the method: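 Romaine lettuce plants 2-3 inches tall were sprayed with 10 mL of insecticide (ppm) with buffer, amine oxide or buffered amine oxide at 200:1, then infested with 15 T. ni and 15 S. exigua larvae (5th-6th instar) per container. Leaf surface damage scored visually in 5% increments after 24 h.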

[3] = insecticide + CO3 buffer 200:1, no amine oxide, PPM: Chlorantranilopril 60, Acephate 70, Methoxyfenozide 100, Spinosad 30, Permethrin 10, Indoxacarb 50
[4] = insecticide + PO4 buffer 200:1, no amine oxide, PPM: Chlorantranilopril 60, Acephate 70, Methoxyfenozide 100, Spinosad 30, Permethrin 10, Indoxacarb 50
[5] = insecticide + amine oxide 12, no buffer, 200:1, PPM: Chlorantranilopril 60, Acephate 70, Methoxyfenozide 100, Spinosad 30, Permethrin 10, Indoxacarb 50
[6] = insecticide + amine oxide 1218, no buffer, 200:1, PPM: Chlorantranilopril 60, Acephate 70, Methoxyfenozide 100, Spinosad 30, Permethrin 10, Indoxacarb 50
[7] = insecticide + buffered amine oxide system CO3, 12, 200:1, PPM: Chlorantranilopril 60, Acephate 70, Methoxyfenozide 100, Spinosad 30, Permethrin 10, Indoxacarb 50
[8] = insecticide + buffered amine oxide system CO3, 1218, 200:1, PPM: Chlorantranilopril 60, Acephate 70, Methoxyfenozide 100, Spinosad 30, Permethrin 10, Indoxacarb 50
[9] = insecticide + buffered amine oxide system PO4, 12, 200:1, PPM: Chlorantranilopril 60, Acephate 70, Methoxyfenozide 100, Spinosad 30, Permethrin 10, Indoxacarb 50
[10] = insecticide + buffered amine oxide system PO4, 1218, 200:1, PPM: Chlorantranilopril 60, Acephate 70, Methoxyfenozide 100, Spinosad 30, Permethrin 10, Indoxacarb 50
[11] = insecticide alone, highest, PPM: Chlorantranilopril 120, Acephate 140, Methoxyfenozide 200, Spinosad 60, Permethrin 20, Indoxacarb 100
[12] = insecticide alone, increased, PPM: Chlorantranilopril 90, Acephate 105, Methoxyfenozide 150, Spinosad 45, Permethrin 15, Indoxacarb 75
[13] = insecticide alone, PPM: Chlorantranilopril 60, Acephate 70, Methoxyfenozide 100, Spinosad 30, Permethrin 10, Indoxacarb 50

Q: What does the source list for COc1cccc(C(=O)NN(C(=O)c2cc(C)cc(C)c2)C(C)(C)C)c1C [Methoxyfenozide]?
A: Percent Lepidopteran Damage to Romaine Lettuce 24 hr [1, 3]: 96.0%; Percent Lepidopteran Damage to Romaine Lettuce 24 hr [1, 4]: 100.0%; Percent Lepidopteran Damage to Romaine Lettuce 24 hr [1, 5]: 79.5%; Percent Lepidopteran Damage to Romaine Lettuce 24 hr [1, 6]: 72.0%; Percent Lepidopteran Damage to Romaine Lettuce 24 hr [1, 7]: 42.5%; Percent Lepidopteran Damage to Romaine Lettuce 24 hr [1, 8]: 43.0%; Percent Lepidopteran Damage to Romaine Lettuce 24 hr [1, 9]: 54.5%; Percent Lepidopteran Damage to Romaine Lettuce 24 hr [1, 10]: 85.0%; Percent Lepidopteran Damage to Romaine Lettuce 24 hr [1, 11]: 100.0%; Percent Lepidopteran Damage to Romaine Lettuce 24 hr [1, 12]: 100.0%; Percent Lepidopteran Damage to Romaine Lettuce 24 hr [1, 13]: 84.0%; Percent Lepidopteran Damage to Romaine Lettuce 48 hr [1, 3]: 99.5%; Percent Lepidopteran Damage to Romaine Lettuce 48 hr [1, 4]: 100.0%; Percent Lepidopteran Damage to Romaine Lettuce 48 hr [1, 5]: 82.5%; Percent Lepidopteran Damage to Romaine Lettuce 48 hr [1, 6]: 80.5%; Percent Lepidopteran Damage to Romaine Lettuce 48 hr [1, 7]: 51.5%; Percent Lepidopteran Damage to Romaine Lettuce 48 hr [1, 8]: 67.0%; Percent Lepidopteran Damage to Romaine Lettuce 48 hr [1, 9]: 67.5%; Percent Lepidopteran Damage to Romaine Lettuce 48 hr [1, 10]: 87.0%; Percent Lepidopteran Damage to Romaine Lettuce 48 hr [1, 11]: 100.0%; Percent Lepidopteran Damage to Romaine Lettuce 48 hr [1, 12]: 100.0%; Percent Lepidopteran Damage to Romaine Lettuce 48 hr [1, 13]: 94.0%; Percent Lepidopteran Damage to Romaine Lettuce 72 hr [1, 3]: 100.0%; Percent Lepidopteran Damage to Romaine Lettuce 72 hr [1, 4]: 100.0%; Percent Lepidopteran Damage to Romaine Lettuce 72 hr [1, 5]: 87.0%; Percent Lepidopteran Damage to Romaine Lettuce 72 hr [1, 6]: 87.5%; Percent Lepidopteran Damage to Romaine Lettuce 72 hr [1, 7]: 57.0%; Percent Lepidopteran Damage to Romaine Lettuce 72 hr [1, 8]: 73.5%; Percent Lepidopteran Damage to Romaine Lettuce 72 hr [1, 9]: 73.0%; Percent Lepidopteran Damage to Romaine Lettuce 72 hr [1, 10]: 88.0%; Percent Lepidopteran Damage to Romaine Lettuce 72 hr [1, 11]: 100.0%; Percent Lepidopteran Damage to Romaine Lettuce 72 hr [1, 12]: 100.0%; Percent Lepidopteran Damage to Romaine Lettuce 72 hr [1, 13]: 96.0%; Percent Lepidopteran Damage to Romaine Lettuce 24 hr [2, 3]: 13.5%; Percent Lepidopteran Damage to Romaine Lettuce 24 hr [2, 4]: 22.0%; Percent Lepidopteran Damage to Romaine Lettuce 24 hr [2, 5]: 28.0%; Percent Lepidopteran Damage to Romaine Lettuce 24 hr [2, 6]: 13.0%; Percent Lepidopteran Damage to Romaine Lettuce 24 hr [2, 7]: 8.0%; Percent Lepidopteran Damage to Romaine Lettuce 24 hr [2, 8]: 9.0%; Percent Lepidopteran Damage to Romaine Lettuce 24 hr [2, 9]: 7.5%; Percent Lepidopteran Damage to Romaine Lettuce 24 hr [2, 10]: 4.5%; Percent Lepidopteran Damage to Romaine Lettuce 24 hr [2, 11]: 23.5%; Percent Lepidopteran Damage to Romaine Lettuce 24 hr [2, 12]: 43.0%; Percent Lepidopteran Damage to Romaine Lettuce 24 hr [2, 13]: 29.5%

Q: Which results are given for Spinosad?
A: Percent Lepidopteran Damage to Romaine Lettuce 24 hr [1, 3]: 25.5%; Percent Lepidopteran Damage to Romaine Lettuce 24 hr [1, 4]: 20.0%; Percent Lepidopteran Damage to Romaine Lettuce 24 hr [1, 5]: 30.5%; Percent Lepidopteran Damage to Romaine Lettuce 24 hr [1, 6]: 15.0%; Percent Lepidopteran Damage to Romaine Lettuce 24 hr [1, 7]: 14.0%; Percent Lepidopteran Damage to Romaine Lettuce 24 hr [1, 8]: 10.5%; Percent Lepidopteran Damage to Romaine Lettuce 24 hr [1, 9]: 6.5%; Percent Lepidopteran Damage to Romaine Lettuce 24 hr [1, 10]: 13.0%; Percent Lepidopteran Damage to Romaine Lettuce 24 hr [1, 11]: 24.5%; Percent Lepidopteran Damage to Romaine Lettuce 24 hr [1, 12]: 12.0%; Percent Lepidopteran Damage to Romaine Lettuce 24 hr [1, 13]: 19.0%; Percent Lepidopteran Damage to Romaine Lettuce 48 hr [1, 3]: 28.0%; Percent Lepidopteran Damage to Romaine Lettuce 48 hr [1, 4]: 28.5%; Percent Lepidopteran Damage to Romaine Lettuce 48 hr [1, 5]: 35.5%; Percent Lepidopteran Damage to Romaine Lettuce 48 hr [1, 6]: 21.0%; Percent Lepidopteran Damage to Romaine Lettuce 48 hr [1, 7]: 38.0%; Percent Lepidopteran Damage to Romaine Lettuce 48 hr [1, 8]: 29.5%; Percent Lepidopteran Damage to Romaine Lettuce 48 hr [1, 9]: 18.5%; Percent Lepidopteran Damage to Romaine Lettuce 48 hr [1, 10]: 22.0%; Percent Lepidopteran Damage to Romaine Lettuce 48 hr [1, 11]: 34.5%; Percent Lepidopteran Damage to Romaine Lettuce 48 hr [1, 12]: 23.5%; Percent Lepidopteran Damage to Romaine Lettuce 48 hr [1, 13]: 26.5%; Percent Lepidopteran Damage to Romaine Lettuce 72 hr [1, 3]: 29.0%; Percent Lepidopteran Damage to Romaine Lettuce 72 hr [1, 4]: 33.0%; Percent Lepidopteran Damage to Romaine Lettuce 72 hr [1, 5]: 36.0%; Percent Lepidopteran Damage to Romaine Lettuce 72 hr [1, 6]: 28.0%; Percent Lepidopteran Damage to Romaine Lettuce 72 hr [1, 7]: 49.5%; Percent Lepidopteran Damage to Romaine Lettuce 72 hr [1, 8]: 35.5%; Percent Lepidopteran Damage to Romaine Lettuce 72 hr [1, 9]: 24.0%; Percent Lepidopteran Damage to Romaine Lettuce 72 hr [1, 10]: 29.5%; Percent Lepidopteran Damage to Romaine Lettuce 72 hr [1, 11]: 36.5%; Percent Lepidopteran Damage to Romaine Lettuce 72 hr [1, 12]: 36.0%; Percent Lepidopteran Damage to Romaine Lettuce 72 hr [1, 13]: 59.0%; Percent Lepidopteran Damage to Romaine Lettuce 24 hr [2, 3]: 17.0%; Percent Lepidopteran Damage to Romaine Lettuce 24 hr [2, 4]: 20.5%; Percent Lepidopteran Damage to Romaine Lettuce 24 hr [2, 5]: 24.5%; Percent Lepidopteran Damage to Romaine Lettuce 24 hr [2, 6]: 22.5%; Percent Lepidopteran Damage to Romaine Lettuce 24 hr [2, 7]: 12.5%; Percent Lepidopteran Damage to Romaine Lettuce 24 hr [2, 8]: 9.5%; Percent Lepidopteran Damage to Romaine Lettuce 24 hr [2, 9]: 10.0%; Percent Lepidopteran Damage to Romaine Lettuce 24 hr [2, 10]: 6.5%; Percent Lepidopteran Damage to Romaine Lettuce 24 hr [2, 11]: 19.0%; Percent Lepidopteran Damage to Romaine Lettuce 24 hr [2, 12]: 17.0%; Percent Lepidopteran Damage to Romaine Lettuce 24 hr [2, 13]: 28.5%
